The results in this text go back to patent US20240352069A1, “SYNTHETIC PEPTIDE, AND COSMETIC COMPOSITION OR PHARMACEUTICAL COMPOSITION AND APPLICATION THEREOF” (SHENZHEN WINKEY TECHNOLOGY CO., LTD., priority 2021, published 2024).

Data set [1] in a line: Stability of powders under high humidity (HPLC purity). The following applies: powder; for High humidity, Day 10 (purity): RH92.5%, 25° C., 10 days. The data set is classed as physicochemical. On the procedure: The powder samples of peptides (3)-(7) were placed under high humidity (RH92.5%, 25° C.) conditions for 10 days, and the purity changes of each sample were investigated by HPLC.

Data set [2] deals with HaCaT cells. As to the kind of experiment: Cell proliferation experiment (MTT), HaCaT. It is filed as cell-based, human. The following applies: 24 hours. An excerpt:
(§1) Human keratinocytes (HaCaT) were purchased from the Kunming Cell Bank of the Type Culture Collection Committee of the Chinese Academy of Sciences, and mouse skin fibroblasts (NIH3T3) were purchased from the Shanghai Cell Bank of the Type Culture Collection Committee of the Chinese Academy of Sciences.
(§2) • a) Take cells in good condition in exponential growth phase, add 0.25% trypsin digestion solution, digest to make adherent cells fall off, count 1-4×10^5 cells/mL, and make cell suspension; • b) Appropriately dilute 2000 cells/well of the cell suspension and inoculate it on a 96-well plate at 200 μL/well, and culture it in a constant temperature CO2 incubator for 24 hours. • c) Change the medium, add the sample to be tested, 20 μL/well, and incubate for 24 hours; • d) Add the MTT reagent into the 96-well plate, 20 μL/well, and react in the incubator for 4 hours; • e) Aspirate the supernatant, add DMSO, 150 μL/well, and shake on a plate shaker for 5 minutes; • f) After 5 minutes, use a microplate reader to read the reference OD values at 490 nm and 630 nm wavelengths, and calculate the cell viability:
(§3) MTT method is a method to detect cell survival and growth. The measured OD value is directly proportional to cell activity. The larger the OD value, the higher the cell activity.

In data set [3] the test system is HaCaT cells. As to the kind of experiment: UVB light damage repair experiment (MTT), HaCaT. The following applies: UVB irradiated, 12.5-100 ppm, 24 hours. It is filed as cell-based, human. As to the method:
as §1
Take cells in good exponential growth phase, add 0.25% trypsin digestion solution, digest to make adherent cells fall off, count 1×10^5-4×10^5 cells/mL, and make cell suspension.
Cells were seeded into 96-well plates at 10,000 cells/well, and the UVB photodamage model was established when the cells reached about 80% confluent. […]
After 24 hours, add 22 μL of 5 mg/mL MTT to each well, place in an incubator and incubate for 4 hours, discard the original solution, and add 150 μL/well of DMSO. After 5 minutes, use a microplate reader to read the reference OD values at 490 nm and 630 nm wavelengths.
By establishing a UVB light-damaged cell model, administering 24 hours after ultraviolet light irradiation, and using the MTT method to detect cell proliferation activity, the ability of the peptide of the present invention to repair light-damaged cells was evaluated.

The subject of the next data set is NIH3T3 cells. As to the kind of experiment: Cell proliferation experiment (MTT), NIH3T3. The data set is classed as cell-based, mouse. The following applies: 24 hours.
Description: as §1, §2, §3

Data set [4] is described as follows: Stability of aqueous solutions (HPLC purity over time). The data set is classed as physicochemical.
Description: (§4) In Example 29, the HPLC chromatographic separation conditions were as follows: • Chromatographic column: Octadecyl bonded silica gel as filler 4.6*250 mm, 5 m • Mobile phase A: Acetonitrile (containing 0.09% trifluoroacetic acid) • Mobile phase B: 0.1% trifluoroacetic acid • Diluent: water • Flow rate: 1.0 ml/min; • Column temperature: 35° C.; • Detection wavelength: 215 nm; • Injection volume: 10 μl; • Running time: 32 min • Gradient elution table:
(§5) The test solution: Take an appropriate amount of this product and add water to dissolve and dilute to make a solution containing 1 mg per 1 ml.
Data set [5] in a line: Stability of powders at 25° C. and 40° C. (HPLC purity over time).
Description: as §4, §5
Data set [6] relates to HaCaT cells. As to the kind of experiment: Scratch test (cell migration). It is filed as cell-based, human. As to conditions: 24 hours after scratch; peptides 100 ppm, EGF 50 U/mL; vs normal control group. On the procedure:
Human keratinocytes (HaCaT) were purchased from the Kunming Cell Bank of the Type Culture Collection Committee of the Chinese Academy of Sciences.
The cryopreserved HaCaT cells were cultured, subcultured to about 5 passages according to the ratio of 1:2, and the cells with better growth were selected as the experimental objects. Cells were seeded in a 12-well plate at a density of 200,000 cells/well, with 2 mL of cell suspension in each well. After the cells adhered to the wall, the medium was replaced with 0.5% to 1% fetal bovine serum to maintain the cells for 24 hours to synchronize them. change. Scratch with a sterilized pipette tip, wash off the dropped cells with PBS, add the sample to be tested, continue to incubate in a 37° C., 5% CO2 incubator, and place it under an optical microscope after 24 hours to analyze the wound healing area.
The cell scratch migration test can reflect the proliferation and repair ability of the cells.

Where [7] appears, read: 12.5 ppm-100 ppm, vs PBS blank control.

Residues, ends and D or L forms follow the SMILES beside them. *: point of attachment. CH2CO2tBu = CC(C)(C)OC(=O)C*; Carboxymethyl = O=C(O)C*; Allyl = C=CC*; X1 = CCCCCCS*; SEt = CCS*

`C=CCSCC(NC(=O)C(NC(=O)CNC(=O)C(CCSC)NC(=O)C(CCCNC(=N)N)NC(=O)C(Cc1ccccc1)NC(=O)C1CCCN1C(=O)C(C)N)C(C)CC)C(=O)NC(C(=O)NC(C(=O)NC(CC(N)=O)C(=O)O)C(C)O)C(C)O` (stereo not shown) [Peptide (3)] (H-APFRMGIC(Allyl)TTN-OH; configuration not given here): in data set [1], the “Day 0 (purity)” value turned out to be 97.605% and the “High humidity, Day 10 (purity)” value is on record as 96.251%. Also, the “impact on the activity of HaCaT cells compared among peptides (1)-(5)” value in the data set on HaCaT cells [2] (12.5-100 ppm) is listed as “greater impact on the activity of HaCaT cells”. The “effect on the activity of HaCaT cells (MTT)” value with HaCaT cells [2] (setting [7]) is listed as “could both improve the activity of HaCaT cells, promote their proliferation”. Besides, in the data set on HaCaT cells [3], the “effect on improving activity of photodamaged HaCaT cells compared among peptides (1)-(5)” value was “better effect on improving cell activity”. Besides, the “impact on the activity of NIH3T3 cells compared among peptides (1)-(5)” value with NIH3T3 cells (12.5-100 ppm) is reported as “greater impact on the activity of NIH3T3 cells”. Also, the “effect on the activity of NIH3T3 cells (MTT)” value with NIH3T3 cells (setting [7]) is “could improve the activity of NIH3T3 cells and promote their proliferation”.
As to `CCCCCCSSCC(NC(=O)C(NC(=O)CNC(=O)C(CCSC)NC(=O)C(CCCNC(=N)N)NC(=O)C(Cc1ccccc1)NC(=O)C1CCCN1C(=O)C(C)N)C(C)CC)C(=O)NC(C(=O)NC(C(=O)NC(CC(N)=O)C(=O)O)C(C)O)C(C)O` (stereo not shown) [(6)] (H-APFRMGIC(X1)TTN-OH; configuration not given here), in data set [1], the “Day 0 (purity)” value amounted to 96.235% and the “High humidity, Day 10 (purity)” value was found to be 95.719%.
On the same counts, the results for `CCSSCC(NC(=O)C(NC(=O)CNC(=O)C(CCSC)NC(=O)C(CCCNC(=N)N)NC(=O)C(Cc1ccccc1)NC(=O)C1CCCN1C(=O)C(C)N)C(C)CC)C(=O)NC(C(=O)NC(C(=O)NC(CC(N)=O)C(=O)O)C(C)O)C(C)O` (stereo not shown) [(5)] (H-APFRMGIC(SEt)TTN-OH; configuration not given here) are 97.482% and 94.603%.
On to “H-Ala-Pro-Phe-Arg-Met-Gly-Ile-Cys-Thr-Thr-Asn-OH (H-APFRMGICTTN-OH) [Reference peptide A]”, for which the “aqueous solution (purity)” value in data set [4] (Day 8 at room temperature) is on record as 80.880%; in data set [4] (Day 18 at room temperature) it was 72.693%; in data set [4] (Day 18 at room temperature, listed as reference peptide A), 72.693%; in data set [4] (Solution, Day 0), 88.030%; in data set [4] (Solution, Day 0, listed as reference peptide A), “decreased significantly”. The “powder (purity)” value turned out to be 85.913% in data set [5] (25° C., Day 5); 57.503% in data set [5] (40° C., Day 5); 57.503% in data set [5] (40° C., Day 5, listed as reference peptide A); 88.030% in data set [5] (powder, Day 0).
On to `CCC(C)C(NC(=O)CNC(=O)C(CCSC)NC(=O)C(CCCNC(=N)N)NC(=O)C(Cc1ccccc1)NC(=O)C1CCCN1C(=O)C(C)N)C(=O)NC(CSCC(=O)OC(C)(C)C)C(=O)NC(C(=O)NC(C(=O)NC(CC(N)=O)C(=O)O)C(C)O)C(C)O` (stereo not shown) [(4)] (H-APFRMGIC(CH2CO2tBu)TTN-OH; configuration not given here), for which, in data set [1], the “Day 0 (purity)” value is 96.017% and the “High humidity, Day 10 (purity)” value is given as 93.962%.
Taken in the same sequence, the figures for `CCC(C)C(NC(=O)CNC(=O)C(CCSC)NC(=O)C(CCCNC(=N)N)NC(=O)C(Cc1ccccc1)NC(=O)C1CCCN1C(=O)C(C)N)C(=O)NC(CSCC(=O)O)C(=O)NC(C(=O)NC(C(=O)NC(CC(N)=O)C(=O)O)C(C)O)C(C)O` (stereo not shown) [(7)] (H-APFRMGIC(Carboxymethyl)TTN-OH; configuration not given here) were 98.541% and 97.863%.
As to “EGF: epidermal growth factor (EGF), 50 U/mL, positive group in the scratch test”, the “scratch spacing (proliferation and migration)” value in the data set with HaCaT cells [6] is given as “spacing was significantly shortened”.
